Assay results taken from the supplement of paper PMC11451515.

System: NOMO1
Test: cell viability relative to DMSO control; higher = less cytotoxic
Conditions: 48 h
Procedure, shortened: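 NOMO1, SEM and P12-Ichikawa leukemia cells spent at least four passages adapting to each medium before use. They were seeded at 500 cells/well (NOMO1, SEM) or 1000 cells/well (P12-Ichikawa) in 5 μl in 1536-well plates and pin-dosed with library compounds in DMSO at 11 threefold steps from 47 μM down to 0.79 nM. After 48 h at 37°C, CellTiter-Glo One luminescence was read. Viability is reported as a percentage of the DMSO wells on each plate, with cell-free wells as background.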

[1] = HPLM + 10% dialyzed FBS, 0.000781 µM
[2] = HPLM + 10% dialyzed FBS, 0.00234 µM
[3] = HPLM + 10% dialyzed FBS, 0.00702 µM
[4] = HPLM + 10% dialyzed FBS, 0.0211 µM
[5] = HPLM + 10% dialyzed FBS, 0.0632 µM
[6] = HPLM + 10% dialyzed FBS, 0.19 µM
[7] = HPLM + 10% dialyzed FBS, 0.569 µM
[8] = HPLM + 10% dialyzed FBS, 1.71 µM
[9] = HPLM + 10% dialyzed FBS, 5.12 µM
[10] = HPLM + 10% dialyzed FBS, 15.4 µM
[11] = HPLM + 10% dialyzed FBS, 46.1 µM
[12] = RPMI 5 mM glucose + 10% FBS, 0.000781 µM
[13] = RPMI 5 mM glucose + 10% FBS, 0.00234 µM
[14] = RPMI 5 mM glucose + 10% FBS, 0.00702 µM
[15] = RPMI 5 mM glucose + 10% FBS, 0.0211 µM
[16] = RPMI 5 mM glucose + 10% FBS, 0.0632 µM
[17] = RPMI 5 mM glucose + 10% FBS, 0.19 µM
[18] = RPMI 5 mM glucose + 10% FBS, 0.569 µM
[19] = RPMI 5 mM glucose + 10% FBS, 1.71 µM
[20] = RPMI 5 mM glucose + 10% FBS, 5.12 µM
[21] = RPMI 5 mM glucose + 10% FBS, 15.4 µM
[22] = RPMI 5 mM glucose + 10% FBS, 46.1 µM
[23] = RPMI 5 mM glucose + 10% dialyzed FBS, 0.000781 µM
[24] = RPMI 5 mM glucose + 10% dialyzed FBS, 0.00234 µM
[25] = RPMI 5 mM glucose + 10% dialyzed FBS, 0.00702 µM
[26] = RPMI 5 mM glucose + 10% dialyzed FBS, 0.0211 µM
[27] = RPMI 5 mM glucose + 10% dialyzed FBS, 0.0632 µM
[28] = RPMI 5 mM glucose + 10% dialyzed FBS, 0.19 µM
[29] = RPMI 5 mM glucose + 10% dialyzed FBS, 0.569 µM
[30] = RPMI 5 mM glucose + 10% dialyzed FBS, 1.71 µM
[31] = RPMI 5 mM glucose + 10% dialyzed FBS, 5.12 µM
[32] = RPMI 5 mM glucose + 10% dialyzed FBS, 15.4 µM
[33] = RPMI 5 mM glucose + 10% dialyzed FBS, 46.1 µM

Row | SMILES | cell viability [1] [%] | cell viability [2] [%] | cell viability [3] [%] | cell viability [4] [%] | cell viability [5] [%] | cell viability [6] [%] | cell viability [7] [%] | cell viability [8] [%] | cell viability [9] [%] | cell viability [10] [%] | cell viability [11] [%] | cell viability [12] [%] | cell viability [13] [%] | cell viability [14] [%] | cell viability [15] [%] | cell viability [16] [%] | cell viability [17] [%] | cell viability [18] [%] | cell viability [19] [%] | cell viability [20] [%] | cell viability [21] [%] | cell viability [22] [%] | cell viability [23] [%] | cell viability [24] [%] | cell viability [25] [%] | cell viability [26] [%] | cell viability [27] [%] | cell viability [28] [%] | cell viability [29] [%] | cell viability [30] [%] | cell viability [31] [%] | cell viability [32] [%] | cell viability [33] [%]
1 | CCc1cc(/C(C)=N/OCc2ccc(C3CCCCC3)c(C(F)(F)F)c2)ccc1CN1CC(C(=O)O)C1 | 111 | 133 | 106 | 108 | 129 | 109 | 108 | 79.1 | 66.4 | 31.8 | 40.1 | 110 | 113 | 104 | 115 | 135 | 115 | 120 | 107 | 107 | 26.8 | 20.9 | 99 | 116 | 117 | 112 | 119 | 114 | 115 | 103 | 103 | 26.6 | 29
2 | CCOP(=O)(OCC)C(C)NC(=O)N(CCCl)N=O (stereo not given) | – | – | – | – | – | – | – | – | – | – | – | 120 | 115 | 124 | 134 | 121 | 131 | 126 | 139 | 141 | 163 | 154 | 112 | 116 | 138 | 141 | 137 | 137 | 134 | 136 | 133 | 140 | 128
3 | CC1=CC2=C(O1)C(=C3OC(=O)\C=C(C)/C3=C2)C | 79.8 | 98.7 | 90.9 | 114 | 104 | 123 | 125 | 121 | 95.2 | 124 | 116 | 114 | 102 | 112 | 115 | 125 | 108 | 114 | 102 | 113 | 106 | 106 | 91.2 | 92.2 | 99.8 | 102 | 107 | 98 | 112 | 105 | 114 | 102 | 114
4 | CC1=C(C)C2=C(S1)[N]3C(=NN=C3[C@H](CC(=O)OC(C)(C)C)/N=C2/C4=CC=C(Cl)C=C4)C | 104 | 97.6 | 92 | 102 | 96.1 | 70.7 | 28.9 | 52.4 | 15.7 | 10.5 | 10.1 | 88.2 | 99.2 | 96.4 | 88.4 | 86.2 | 81.8 | 27.3 | 50.5 | 12.1 | 10.6 | 11.1 | 101 | 97.5 | 92.5 | 87.7 | 96.8 | 81.9 | 29.5 | 55.3 | 11.7 | 10.6 | 10.5
5 | C[C@H]1[C@@H](CC(C[C@H]2O[C@@H]3O[C@]4(C)CC[C@H]5[C@H](C)CC[C@@H]([C@H]2C)[C@@]35OO4)C[S+](=O)([O-])c2ccc(COC(=O)N(C)C)cc2)O[C@@H]2O[C@]3(C)CC[C@H]4[C@H](C)CC[C@@H]1[C@@]24OO3 | 122 | 123 | 116 | 120 | 127 | 110 | 44.8 | 22.5 | 22.3 | 17.9 | 10.8 | 114 | 119 | 113 | 98.9 | 103 | 101 | 82.5 | 28 | 21.8 | 17 | 15.1 | 109 | 118 | 100 | 110 | 108 | 91.9 | 32.3 | 22.5 | 24 | 18.8 | 14.8
6 | N#Cc1c(C2CCNCC2)cc(-c2c(O)cccc2OCC2CC2)nc1N | 110 | 116 | 126 | 115 | 103 | 113 | 121 | 104 | 105 | 90.1 | 99.1 | 102 | 115 | 104 | 118 | 111 | 104 | 113 | 102 | 93.6 | 88.4 | 80.9 | 115 | 101 | 117 | 116 | 111 | 105 | 117 | 104 | 94.2 | 88.3 | 74.4
7 | NC/1=N/C(=O)N(/C=C1)[C@H]2CC[C@@H](CO)O2 | 76 | 106 | 107 | 103 | 97.5 | 101 | 107 | 92.1 | 82.8 | 82.2 | 14.2 | 75.6 | 91.3 | 85.7 | 96.4 | 87.1 | 92.3 | 85.7 | 89.2 | 91 | 93.1 | 8.01 | 70.8 | 94.6 | 92.2 | 98.5 | 101 | 105 | 108 | 95.9 | 74 | 88.7 | 6.05
8 | CN(C(=O)c1ccc(F)cc1C(F)(F)F)C1CCN(c2nnc(-c3ccnn3C)c3ccccc23)CC1 | 61.1 | 79 | 87.1 | 83.2 | 102 | 97.8 | 83.4 | 95.2 | 85.2 | 88.8 | 77.9 | 66 | 71.6 | 69.4 | 83.3 | 82.3 | 84.8 | 11.9 | 82.8 | 79.6 | 76.6 | 75 | 76 | 85.4 | 79.9 | 86.8 | 77.6 | 86.3 | 77.1 | 80.7 | 82.2 | 78 | 41.9
9 | Nc1ccc([S+](=O)([O-])Nc2ccccn2)cc1 | 122 | 106 | 122 | 117 | 106 | 115 | 140 | 133 | 116 | 124 | 87.6 | 110 | 106 | 111 | 113 | 121 | 125 | 112 | 118 | 126 | 108 | 79.8 | 120 | 121 | 114 | 109 | 112 | 121 | 122 | 130 | 109 | 115 | 58.1
10 | CCCCCCCCCCCCCCCC(=O)OC[C@@H](NC(=O)C(Cl)Cl)[C@H](O)c1ccc([N+](=O)[O-])cc1 | 105 | 123 | 126 | 143 | 118 | 141 | 140 | 144 | 141 | 144 | 142 | – | – | – | – | – | – | – | – | – | – | – | – | – | – | – | – | – | – | – | – | – | –
11 | CC1=C(/C=C/C(C)=C/C=C/C(C)=C/C(=O)Nc2ccc(O)cc2)C(C)(C)CCC1 | 63.6 | 82.3 | 97.9 | 102 | 87.5 | 81.5 | 94.6 | 80.6 | 53.6 | 25.9 | 4.95 | 72.4 | 85.1 | 74.5 | 96.5 | 91 | 79.9 | 95 | 78.8 | 63 | 34 | 4.45 | 78 | 76.4 | 77.8 | 92.9 | 90.9 | 89.7 | 86 | 85.5 | 55.8 | 23.6 | 3.24
12 | O=C(Oc1ccc([N+](=O)[O-])cc1)N1CCN(Cc2cccc(Oc3ccccc3)c2)CC1 | 115 | 110 | 112 | 113 | 113 | 126 | 104 | 126 | 120 | 102 | 122 | 95.6 | 101 | 112 | 113 | 113 | 123 | 110 | 105 | 110 | 109 | 112 | 93.9 | 98.5 | 103 | 99.8 | 99.9 | 98.3 | 103 | 114 | 104 | 112 | 105
13 | COc1ccc2cc(-c3[nH]c(-c4ccc([S+](C)[O-])cc4)nc3-c3ccncc3)ccc2c1 (stereo not given) | 115 | 118 | 124 | 118 | 136 | 143 | 148 | 126 | 120 | 143 | 111 | 100 | 103 | 114 | 113 | 114 | 99.1 | 107 | 111 | 108 | 110 | 134 | 111 | 98.5 | 106 | 118 | 121 | 113 | 130 | 123 | 127 | 150 | 119
14 | O=C(c1ccc(F)cc1)C1CCN(CCn2c(=O)[nH]c3ccccc3c2=O)CC1 | 122 | 117 | 111 | 128 | 136 | 114 | 127 | 120 | 143 | 111 | 104 | 107 | 118 | 117 | 118 | 105 | 111 | 127 | 106 | 105 | 111 | 98.8 | – | – | – | – | – | – | – | – | – | – | –
15 | COc1ccc(-c2c(-c3ccc(O)cc3O)n[nH]c2C)cc1 | 108 | 115 | 105 | 115 | 126 | 117 | 104 | 123 | 83 | 102 | 59 | 89 | 98.4 | 105 | 101 | 100 | 113 | 105 | 111 | 106 | 102 | 90.3 | 91 | 98 | 102 | 124 | 113 | 110 | 121 | 99.1 | 109 | 99.1 | 77.1
16 | CN1[C@@H]2CC(O)C[C@H]1[C@@H]1O[C@@H]12 (stereo not given in full) | – | – | – | – | – | – | – | – | – | – | – | 111 | 125 | 121 | 121 | 113 | 118 | 103 | 113 | 121 | 111 | 6.78 | – | – | – | – | – | – | – | – | – | – | –
17 | c1ccc2c(-c3cnn4cc(-c5ccc(N6CCNCC6)cc5)cnc34)ccnc2c1 | 79.8 | 77.8 | 134 | 166 | 144 | 143 | 146 | 121 | 114 | 111 | 90.3 | 93.8 | 91.3 | 139 | 133 | 132 | 137 | 128 | 126 | 122 | 120 | 87.7 | 83.9 | 72 | 122 | 120 | 173 | 150 | 141 | 144 | 146 | 117 | 77.8
